Reference: patent US20100112173A1, “ADDITIVE TO LOW-ALCOHOL OR SOFT DRINKS AND METHODS OF CONDITIONING DRINKS” (priority 2007, published 2010)

Legend:
[1] = Comparative toxicometry, K sim coefficient; type: in vivo
[2] = Comparative toxicometry, DL 50 ks
[3] = cited from earlier work
[4] = Bioavailability / metabolism of the selenium compound
[5] = Comparative toxicometry, DL 50 m
[6] = Hazard (toxicity) class assignment
[7] = Comparative toxicometry, Lim sub ch (30 days); type: in vivo
[8] = cited from earlier work; remark: listed apart in the source

Structure (SMILES) | K sim (Limetal) ([1]; Limetal) | K sim (according to Yu. S. Kogan) [1] | DL 50 ks [2] | Maximum allowable concentrations [3] | ADI (human) ([3]; human) [mg/kg] | metabolism (bioavailability) [4] | DL 50 m [5] | hazard class according to Zaugolnikov Table [6] | Lim sub ch (30 days) [7] [mg/kg] | class of hazard subject to GOST 12.1.007-76 [8] | MAC (human) ([3]; human) [mg/m^3]
Cc1n[nH]c(C)c1[Se]c1c(C)n[nH]c1C [DMDPS (Selekor-S), Di-(3,4)-methyldipyrazolylselenide] | (>6) | (5) | 6,000-8,100 mg/kg | 8,100 μg/kg | >0.02 | 85-95% | 4,800-6,000 mg/kg | fourth hazard class | 400 to 800 |  | 
O=[Se](=O)(O)O [sodium selenate] |  |  |  |  |  |  |  |  |  | 1 (first) class of hazard | 
O=[Se]([O-])[O-].[Na+].[Na+] [Na2SeO3, sodium selenite, reference compound] |  | (1.6) | 7 to 14 mg/kg |  | 0.0007 |  | 6 mg/kg |  |  | 1 (first) class of hazard | 0.1
